According to patent US20180243363A1, “NEUROKININ 1 RECEPTOR AGONIST MEDIATED PROTECTION OF THE EYE” (WAYNE STATE UNIVERSITY, priority 2016, published 2018):
Where a SMILES comes first, the peptide text is derived from it. [ ]: non-standard residue; d: D form. NMeL = CN[C@@H](CC(C)C)C(=O)O; Ava = NCCCCC(=O)O

How the values were obtained:
NK1R [1] = molecular target: T1, NK1R (Mus musculus, UniProt P30548); test: Phenol red thread tear volume after ocular HSV-1 infection, GR73632 I.P. treatment; type: in vivo, mice; parameters: from tissue; host or cells: living mice (in vivo; eye / tear read-out after systemic dosing); settings: GR73632 I.P. treated vs control treated group
Procedure: FIGS. 12A, 12B. Increased tear volume at D7 and D10 post ocular HSV-1 infection (POI) in GR73632 I.P treated eyes compared to the control treated group. Phenol Red thread (yellow color) images showing the thread wetness (red color) measured in mm.
Corneal HSV-1 infection. To carry out ocular HSV-1 infection, mice were first anesthetized by intra-peritoneal injection of Ketamine (33 mg/Kg bodyweight)+Xylazine (20 mg/Kg bodyweight) in 0.2 ml PBS. The cornea was scarified with trephine (Fine Science Tools, Foster City, Calif.) while twisting three to four times over the corneal surface. 1×10^4 plaque forming units (p.f.u) of HSV-1 virus were then topically applied with a pipette to the eye in 3 μL of 1×PBS followed by gentle massage of the eyelids.
(§1) Phenol red thread tear test. To measure the tear levels in the eyes of unmanipulated B6 and NK1R^−/− mice, pH indicator phenol red treated cotton threads were obtained from Zone-Quick (ZQ-1010, Showa Yakuhin Kako, Japan). The mice were restrained by holding the lose skin at the base of the neck without touching the facial skin or whiskers. The eyes were tested for tear level by placing the tip of the cotton thread on the bulbar conjunctiva of the lateral canthus for 30 seconds. A picture of the threads was taken and tear absorption was measured using a 10 cm scale.

NK1R [2] = molecular target: T1, NK1R; test: Tear film (basal tear volume) after systemic NK1R antagonist administration; type: in vivo; parameters: from tissue; host or cells: living C57Bl/6 mice (in vivo; basal tear volume); settings: systemic treatment, C57Bl/6 mice
Procedure: FIG. 14. Alteration in Tear Film after NK1R antagonist administration.
as §1

T1 sequence (P30548 whole entry): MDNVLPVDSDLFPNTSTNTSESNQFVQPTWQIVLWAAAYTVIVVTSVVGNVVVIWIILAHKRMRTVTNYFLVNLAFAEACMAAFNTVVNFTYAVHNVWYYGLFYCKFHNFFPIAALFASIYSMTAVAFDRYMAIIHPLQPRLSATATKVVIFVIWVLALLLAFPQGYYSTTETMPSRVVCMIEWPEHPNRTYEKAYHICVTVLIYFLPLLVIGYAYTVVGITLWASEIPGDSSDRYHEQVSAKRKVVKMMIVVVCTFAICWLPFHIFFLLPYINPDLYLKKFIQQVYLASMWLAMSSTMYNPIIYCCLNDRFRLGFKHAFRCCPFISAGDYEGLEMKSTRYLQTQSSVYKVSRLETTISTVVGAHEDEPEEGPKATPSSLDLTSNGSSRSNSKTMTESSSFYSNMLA

| tear volume (phenol red thread wetness) (NK1R [1]; D7 post ocular HSV-1 infection, p<0.05) | tear volume (phenol red thread wetness) (NK1R [1]; D10 post ocular HSV-1 infection, p<0.01) | volume of basal tears (NK1R [2]) | Compound |
| --- | --- | --- | --- |
| Significant increase in tear volume | Significant increase in tear volume |  | CSCC[C@H](NC(=O)[C@H](CC(C)C)N(C)C(=O)[C@@H]1CCCN1C(=O)[C@H](Cc1ccccc1)NC(=O)[C@H](Cc1ccccc1)NC(=O)CCCCN)C(N)=O [GR73632] (H-[Ava]FFP[NMeL]M-NH2) |
|  |  | reduces the volume of basal tears | Spantide I |
